Assay results from US8802638B1, “Flavonoid treatment of glycogen synthase kinase-based disease” (University of South Florida, priority 2007, dated 2014).

Experiments:
[1] = biological target: T1, γ-secretase (Mus musculus, UniProt P49769); assay: fluorometric assay for γ-secretase cleavage activity in SweAPP N2a cell lysates; assay type: cell-based, murine; settings: relative to untreated control
T1 construct: endogenous in cells; host or cells: SweAPP N2a cells (lysates of treated cells)
Procedure: (§1) Cultured cells or mouse brain were lysed in ice-cold lysis buffer described above, and an aliquot corresponding to 50 μg of total protein was electrophoretically separated using 12% Tris-HCl or 16.5% Tris-tricine gels. Electrophoresed proteins were then transferred to PVDF membranes, washed in dH2O, and blocked for 1 hr at ambient temperature in Tris-buffered saline (TBS; Bio-Rad) containing 5% (w/v) non-fat dry milk. After blocking, membranes were hybridized for 1 hr at ambient temperature with various primary antibodies. Membranes were then washed 3× for 5 min each in dH2O and incubated for 1 hr at ambient temperature with the appropriate HRP-conjugated secondary antibody (1:1,000). Antibodies were obtained against the amino-terminus and carboxyl-terminus of PS1 (Chemicon, Temecula, Calif.), amino-terminus and carboxyl-terminus of APP (22C11), actin (Roche, Basel, Switzerland), Aβ (6E10, 48G) (Signet Laboratories, Dedham, Mass.), phosphor-GSK3α (ser^21, clone BK202) (Upstate, Lake Placid, N.Y.), phospho-GSK3α/β (pTyr^279/216) (Sigma), phospho-GSK-3β (Ser^9) (Sigma) and total GSK-3α/β (Sigma). […] Densitometric analysis was done as previously described using a FluorS Multiimager with Quantity One™ software (39). […] Antibodies used for Western blot included the APP-carboxyl-terminal antibody (1:50)), amino-terminal APP antibody (clone 22C11), or 6E10 (1:1,000), or actin antibody (1:1,500; as an internal reference control). γ-secretase activity was quantified in cell lysates using available kits based on secretase-specific peptides conjugated to fluorogenic reporter molecules.
Due to the implications on γ-secretase activity, luteolin's effect on SweAPP N2a cells was analyzed using a fluorometric assay for γ-cleavage.
Cultured cells or mouse brain were lysed in ice-cold lysis buffer described above, and an aliquot corresponding to 50 μg of total protein was electrophoretically separated using 12% Tris-HCl or 16.5% Tris-tricine gels. […] Densitometric analysis was done as previously described using a FluorS Multiimager with Quantity One™ software. […]

[2] = test system: TACE, ADAM10, sAPPα; assay: non-amyloidogenic APP processing (TACE, ADAM10 maturation, sAPPα release); assay type: cell-based; settings: data not shown
Text: The presence of phosphorylated PS1 CTFs corresponds with reduction of Aβ generation and accumulation of the β-CTF of APP, as was observed following luteolin treatment. The accumulation β-CTFs following luteolin treatment is a fraction of β-CTF seen after direct γ-secretase inhibitor treatment (data not shown). In view of this finding, selective GSK-3 inactivation is a less toxic, more regulative, substrate-specific mode of γ-secretase inhibition. Earlier studies routinely employed phorbol-12,13-dibutyrate (PDBu), a potent PKC activator, as their phosphorylating agent. Thus, luteolin was tested for similar PKC activation, rather than a GSK-3 inhibitor. […] Additionally, there are no indications GSK-3α inhibition affects non-amyloidogenic processing of APP, since luteolin, SB-415286, and GSK-3α RNAi treatment have no effect on the maturation of TACE, ADAM10, or sAPPα release (data not shown), which are all strongly associated with PKC activation.

[3] = test system: β-catenin; assay: β-catenin after luteolin treatment; assay type: cell-based; settings: data not shown
[4] = cited from earlier work
[5] = biological target: GSK-3α/β (Mus musculus, UniProt Q2NL51); assay: Western blot of phosphorylated GSK-3α/β forms in Tg2576-derived neuronal cells; assay type: cell-based, mice; set-up: endogenous in cells; host or cells: primary neuronal cells derived from Tg2576 mice; settings: 20 μM
Sequence of GSK-3α/β (Q2NL51 2-490): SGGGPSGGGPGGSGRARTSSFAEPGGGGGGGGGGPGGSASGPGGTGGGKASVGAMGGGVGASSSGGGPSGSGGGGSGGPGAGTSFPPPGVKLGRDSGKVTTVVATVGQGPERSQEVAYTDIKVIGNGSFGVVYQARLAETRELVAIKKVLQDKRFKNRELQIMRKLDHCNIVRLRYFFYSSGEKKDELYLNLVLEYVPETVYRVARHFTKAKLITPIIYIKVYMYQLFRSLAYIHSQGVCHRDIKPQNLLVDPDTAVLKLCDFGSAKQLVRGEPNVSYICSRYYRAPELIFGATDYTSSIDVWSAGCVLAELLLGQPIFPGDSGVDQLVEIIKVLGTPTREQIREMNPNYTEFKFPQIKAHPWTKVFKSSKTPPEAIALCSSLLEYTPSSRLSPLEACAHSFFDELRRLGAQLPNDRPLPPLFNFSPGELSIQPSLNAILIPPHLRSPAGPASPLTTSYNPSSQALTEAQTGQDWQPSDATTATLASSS
Procedure: as §1, with “(1:1,000).” for “(1:1,000). Antibodies were obtained against the amino-terminus and carboxyl-terminus of PS1 (Chemicon, Temecula, Calif.), amino-terminus and carboxyl-terminus of APP (22C11), actin (Roche, Basel, Switzerland), Aβ (6E10, 48G) (Signet Laboratories, Dedham, Mass.), phosphor-GSK3α (ser^21, clone BK202) (Upstate, Lake Placid, N.Y.), phospho-GSK3α/β (pTyr^279/216) (Sigma), phospho-GSK-3β (Ser^9) (Sigma) and total GSK-3α/β (Sigma).”, “molecules. […]” for “molecules.”

## O=c1cc(-c2ccc(O)c(O)c2)oc2cc(O)cc(O)c12 [luteolin]
[1]
  γ-secretase cleavage activity: lowered γ-secretase cleavage activity in both a dose and time dependent fashion
[2]
  maturation of TACE, ADAM10, or sAPPα release: no effect
[3]
  β-catenin: remains unaffected
[4]; in vivo
  half-life in plasma: < 4 h
[4]; oral
  oral bioavailability: < 2%
[5]
  levels of serine 21-phosphorylated, inactive GSK-3α isoforms: increased the levels
